Results taken from BindingDB's records for doi:10.1016/j.ejmech.2013.06.030 (National Institute On Drug Abuse and The National Institute …, 2013).

Target: Delta-type opioid receptor (Homo sapiens, UniProt P41143)
Assay: Displacement of [3H]DADLE from human delta opioid receptor expressed in CHO cells after 2 hrs by liquid scintillation counting

Chain of Delta-type opioid receptor (P41143 whole entry): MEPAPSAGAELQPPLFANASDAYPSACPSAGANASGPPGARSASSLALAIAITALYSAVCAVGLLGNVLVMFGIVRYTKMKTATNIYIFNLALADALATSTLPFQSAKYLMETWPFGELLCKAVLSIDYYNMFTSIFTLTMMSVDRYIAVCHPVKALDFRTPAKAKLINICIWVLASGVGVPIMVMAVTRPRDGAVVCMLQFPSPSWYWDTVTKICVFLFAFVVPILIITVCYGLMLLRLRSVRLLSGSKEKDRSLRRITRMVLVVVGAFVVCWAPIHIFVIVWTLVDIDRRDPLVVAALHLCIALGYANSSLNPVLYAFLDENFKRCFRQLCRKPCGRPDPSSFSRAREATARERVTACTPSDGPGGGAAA

Compound	Ki [nM]
Oc1cccc([C@@]23CCN(CCc4ccccc4)[C@H](C[C@@H](O)C2)C3)c1	876
Oc1cccc([C@]23CCN(CCc4ccccc4)[C@H](C2)[C@H]2CCCC[C@@H]2C3)c1	103
C[C@H]1CC[C@@]2(c3cccc(O)c3)CCN(C)[C@@H]1C2	139
CN1CC[C@]2(c3cccc(O)c3)C[C@@H](c3ccccc3)C[C@H]1C2	583
C[C@H]1C[C@H]2C[C@](c3cccc(O)c3)(CCN2C)C1	721
C[C@H]1CC[C@@]2(c3cccc(O)c3)CCN(CCc3ccccc3)[C@@H]1C2	126
C[C@H]1C[C@H]2C[C@](c3cccc(O)c3)(CCN2CCc2ccccc2)C1	260
Oc1cccc([C@@]23CCN(CCc4ccccc4)[C@@H](C[C@H](c4ccccc4)C2)C3)c1	318
